Measurements: the supplement of paper PMC10307832

Tests used:
Assay in all cases: relative viability (nuclei count vs DMSO), 5 days (fraction); higher = more cells survive
[1] = compound: C1CC2=C(C1)C=C(C=C2)OC3=NC(=C4C(=N3)N(C=N4)CC5=CC=C(C=C5)C6=CC=CC=C6)N[C@@H](CC7=CC=CC=C7)CO [QS11] + CCNC(=O)c1noc(-c2cc(C(C)C)c(O)cc2O)c1-c1ccc(CN2CCOCC2)cc1 [Luminespib] (partner 0.01 µM)
Summary of the method: (§1)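 Lung cancer cell lines in 1536-well plates were dosed by pin tool the day after seeding, either with one drug alone or with a fixed anchor-drug dose plus five library-drug doses (not always all listed) in √10 steps. After 5 days, cells were fixed and their nuclei stained in one step (final 0.05% Triton X-100, 1% formaldehyde, 1 ug/ml Hoechst), then counted on 4× images. Relative viability is the nuclei count in treated wells divided by that in vehicle wells. Values are medians of duplicate plates.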

[2] = compound: C[As](C)SC[C@H](NC(=O)CC[C@H](N)C(=O)O)C(=O)NCC(=O)O [Darinaparsin] + CC(C)C[C@H](NC(=O)[C@H](Cc1ccccc1)NC(=O)c1cnccn1)B(O)O [Bortezomib] (partner 0.002 µM)
Summary of the method: as §1

[3] = compound: CC1=C(C=C(C=C1)NC(=O)C2=CC(=CC=C2)C(C)(C)C#N)NC3=CC4=C(C=C3)N=CN(C4=O)C [AZ628] + Nc1ncn([C@H]2C[C@H](O)[C@@H](CO)O2)c(=O)n1 [Decitabine] (partner 2 µM)
Summary of the method: as §1

[4] = compound: CC1=C(C=C(C=C1)NC(=O)C2=CC(=CC=C2)C(C)(C)C#N)NC3=CC4=C(C=C3)N=CN(C4=O)C [AZ628] + O=C(CCCCCCC(=O)Nc1ccccc1)NO [Vorinostat] (partner 1 µM)
Summary of the method: as §1

Cell Line | relative viability ([1]; first compound 0.08 µM) | relative viability ([1]; first compound 0.253 µM) | relative viability ([1]; first compound 0.8 µM) | relative viability ([1]; first compound 2.53 µM) | relative viability ([1]; first compound 8 µM) | relative viability ([2]; first compound 0.08 µM) | relative viability ([2]; first compound 0.8 µM) | relative viability ([2]; first compound 2.53 µM) | relative viability ([2]; first compound 8 µM) | relative viability ([3]; first compound 0.08 µM) | relative viability ([3]; first compound 0.253 µM) | relative viability ([3]; first compound 0.8 µM) | relative viability ([3]; first compound 2.53 µM) | relative viability ([3]; first compound 8 µM) | relative viability ([4]; first compound 0.08 µM) | relative viability ([4]; first compound 0.253 µM) | relative viability ([4]; first compound 0.8 µM) | relative viability ([4]; first compound 2.53 µM) | relative viability ([4]; first compound 8 µM)
NCI-H2126 | 0.923 | 0.976 | 0.695 | 0.766 | 0.726 | 1.16 | 1.2 | 0.892 | 1.19 | 0.567 | 0.571 | 0.632 | 0.606 | 0.593 | 0.862 | 0.786 | 0.642 | 0.729 | 0.703
BEN | 0.241 | 0.567 | 0.366 | 0.507 | 0.31 | 0.889 | 0.846 | 0.654 | 1 | 0.758 | 0.637 | 0.651 | 0.668 | 0.735 | 0.615 | 0.513 | 0.571 | 0.557 | 0.589
LCLC-103H | 0.661 | 1.17 | 0.747 | 0.915 | 1.02 | 1.05 | 0.978 | 1.14 | 1.35 | 0.71 | 0.728 | 0.726 | 0.641 | 0.601 | 0.727 | 0.804 | 0.776 | 0.712 | 0.728
NCI-H596 | 0.87 | 1.09 | 0.919 | 0.829 | 0.934 | 1.35 | 1.09 | 1 | 1 | 1.02 | 1.12 | 1.13 | 1.1 | 0.933 | 0.559 | 0.594 | 0.69 | 0.686 | 0.682
HCC-827 | 0.587 | 0.508 | 0.597 | 0.694 | 0.675 | 1.12 | 1.02 | 1.08 | 1.15 | 0.33 | 0.32 | 0.348 | 0.402 | 0.313 | 0.963 | 0.795 | 0.906 | 0.921 | 0.552
NCI-H727 | 0.876 | 0.391 | 0.341 | 0.321 | 0.341 | 0.912 | 0.742 | 0.963 | 0.986 | 0.918 | – | – | 0.644 | 0.345 | 1.25 | – | – | 0.891 | 0.352
NCI-H1915 | 0.952 | 0.959 | – | 0.766 | 0.447 | 1.08 | 1.03 | 0.844 | 1.25 | 0.271 | 0.259 | 0.267 | 0.254 | 0.169 | 0.549 | 0.606 | 0.537 | 0.461 | 0.462
NCI-H2347 | 0.367 | 0.571 | 0.505 | 0.352 | 0.886 | 1.18 | 0.742 | 0.831 | 1.16 | 0.522 | 0.605 | 0.582 | 0.613 | 0.36 | 0.46 | 0.642 | 0.447 | 0.439 | 0.335
NCI-H647 | 0.155 | 0.321 | 0.118 | 0.171 | 0.141 | 1.79 | 1.17 | 0.802 | 1.17 | 0.383 | 0.452 | 0.329 | 0.383 | 0.332 | 0.54 | 0.845 | 0.524 | 0.833 | 0.488
